Source: patent publication US7803801B2, “Aminopyridine compounds having Syk inhibitory activity” (Japan Tobacco, Inc., priority 2005, dated 2010)
pIC50: −log10 of the molar value. Like-named read-outs stand apart in the source and are kept apart here.

How the values were obtained:
[1] = biological target: GST-Syk Full Protein (human) (Homo sapiens, UniProt P43405); assay: Syk kinase inhibition test (HTRF method); type: biochemical
Outline: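 HTRF read-out: after EDTA termination and 1 h with XL665-streptavidin and Eu-anti-phosphotyrosine, the 665/620 nm ratio was measured. The reaction ran 30 min at 20–25 °C with final 6.4 nM human GST-Syk, 250 nM biotinylated peptide, 100 μM ATP, pH 7.0 HEPES buffer, 2% DMSO.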

[2] = test system: cultured human mast cells; assay: Degranulation inhibition test using cultured human mast cells (IgE cross-linking, β-Hexosaminidase release); type: cell-based; settings: Mast cell, cultured human mast cells, read-out: human degranulation ave. IC50
Protocol: Degranulation Inhibition Test Using Cultured Human Mast Cells
(1) Separation of Hematopoietic Stem Cells;
After 10 to 60 mL of umbilical cord blood collected with heparin was diluted with an equivalent amount of buffer (0.5% BSA, 2 mM EDTA/PBS-), it was superposed on Ficoll-Paque (Amersham Pharmacia Biotech) (Ficoll/Blood (1:2)) and mononuclear leukocyte fraction was collected by centrifuging it at 400 G (1350 rpm) 4° C. for 30 minutes. After centrifugal washing (1500 rpm, 5 min, 4° C.×3) with buffer, the number of cells was counted and 0.1 mL of CD34 Progenitor Cell Isolation Kit (Miltenyi Biotec), Reagent A1 (Fc blocking) was added for 1×10^8 cells. After agitation, 0.1 mL of Reagent A2 (CD34 antibody-hapten) was added (final volume 0.5 mL/1×10^8 cells) and incubated at 9° C. for further 15 minutes after agitation. After centrifugal washing (1500 rpm, 5 min, 4° C.×3), it was resuspeded in a buffer (0.4 mL) and 0.1 mL of Reagent B (anti hapten antibody-microbeads) was added and agitated (final volume 0.5 mL/1×10^8 cells) and incubated at 9° C. for further 15 minutes. After centrifugal washing (1500 rpm, 5 min, 4° C.×2), it was resuspeded in a buffer (0.5 mL) and loaded on CS column (Miltenyi Biotec) set in MACS (MAgnetic Cell Sorting system; Miltenyi Biotec, Daiichi Pure Chemicals) and washed with 30 mL of buffer to remove CD34^− cells. The column was separated from MACS and eluted with 30 mL of buffer and CD34^+ cells bound to the column were collected and used as a hematopoietic stem cell population.
(2) Acquisition of Human Mast Cells by Long-Term Culturing of Hematopoietic Stem Cells;
The CD34^+ cells separated in (1) were resuspended in Iscove's Modified Dulbecco's Medium (IMDM, Gibco) containing human (rh)SCF (1 μg/mL, Peprotech), rhIL-6 (0.5 μg/mL, Peprotech), rhIL-3 (10 ng/mL, Peprotech), 1% Insulin-Transferrin (Gibco), 5×10^−5M 2-ME (Gibco), 0.1% BSA (Sigma) in a density of 1×10^6 cells/ml and disseminated on 24-well culture plate with a dose of 0.1 mL/well and 0.9 ml of IMDM (Methocult SF^BIT StemCell technology) containing 0.9% methyl cellulose was added and culturing was started. The above culture medium (excluding methyl cellulose) was added in a week and after that 100 μL/well of the above culture medium (further excluding IL-3) was added at an interval of every once a week so that cells were diluted to maintain 10^5 cells/mL/well order and cultured more than about 8 weeks and thereby human culture mast cells were obtained.
(3) Expression Enhancement of FcεRI and Inhibition Test IgE Cross-Linking Stimulating Degranulation;
rhIL-4 (final concentration 1 ng/mL, R & D) and Homo sapiens(h) IgE (final concentration 0.5 μg/mL, CHEMICON) were added to the obtained human culture mast cells, and they were incubated for 5 days to enhance the expression of FcεRI. After incubation, cells were collected and, after centrifugal washing (IMDM), they were disseminated on 96-well culture plate in 5×10^4 cells/80 μL/well.
10 μL of a compound 10-fold diluted with IMDM after dissolved in DMSO (DMSO final concentration 0.1%) was added and reacted at 37° C. for 10 minutes. Further, 10 μL of anti-hIgE Ab (CHEMICON) adjusted to 100 μg/mL (final concentration 10 μg/mL) was added and degranulation was caused by being stimulated at 37° C. for 30 minutes. After centrifugation, 50 μL/well of the supernatant was collected and stored at −40° C. untill the quantity of degranulation was measured. The measurement of quantity of degranulation was performed using enzymatic activity of β-Hexosaminidase contained in the granulates as an index. That is, an equivalent amount of p-nitrophenyl-N-acetyl-β-D-glucosaminide (1 mM) (containing 0.1% Triton X-100) which is a substrate of β-Hexosaminidase was added to 50 μL of the culture filtrate, and after reacted at 37° C. for 2 hours, the reaction was terminated by using 100 μL of Carbonate buffer (0.1M, pH 10). […]

[3] = HTRF, 100 μM ATP, 30 min room temperature, average, read-out: sykHTRF ave IC50
[4] = anti-hIgE stimulation, β-Hexosaminidase index, average
[5] = Tables 1-x, compounds A, read-out: sykHTRF ave IC50
[6] = Tables 2-x, thiophene compounds B, read-out: sykHTRK ave IC50
[7] = Tables 2-x, thiophene compounds B

pIC50 [1, 3] | pIC50 [2, 4] | Compound | also measured
6.00 to 7.00 | 6.00 to 7.00 | CC(=O)OCC(=O)N[C@@H](C)c1ncc(-c2cccc(Nc3cc(C)ccn3)n2)s1 [Compound A-146] | 
 |  | Cc1ccnc(Nc2cccc(-c3cnc([C@@H]4CNC(=O)O4)s3)n2)c1 [Compound A-409, (S)-5-{5-[6-(4-methylpyridin-2-ylamino)pyridin-2-yl]thiazol-2-yl}oxazolidin-2-one] | pIC50 [1, 5]: > 7.00; pIC50 ([2]; Tables 1-x, compounds A): > 7.00
 |  | CCC(=NO)c1ccc(-c2cccc(Nc3cc(C)ccn3)n2)s1 [Compound B-51, 1-{5-[6-(4-methylpyridin-2-ylamino)pyridin-2-yl]thiophen-2-yl}propan-1-one oxime] | pIC50 [1, 6]: > 7.00; pIC50 [2, 7]: < 6.00
> 7.00 | < 6.00 | Cc1ccnc(Nc2cccc(-c3cnc(C(=O)NCCC(=O)O)s3)n2)c1 [Compound A-148, 3-({5-[6-(4-methylpyridin-2-ylamino)pyridin-2-yl]thiazole-2-carbonyl}amino)propionic acid] | 
> 7.00 | 6.00 to 7.00 | Cc1ccnc(Nc2cccc(-c3cnc(CC(C)(C)CCO)s3)n2)c1 [Compound A-158, 3,3-dimethyl-4-{5-[6-(4-methylpyridin-2-ylamino)pyridin-2-yl]thiazol-2-yl}butan-1-ol] | 
> 7.00 | 6.00 to 7.00 | COc1ccnc(Nc2cccc(-c3cnc([C@@H]4CCC(=O)N4)s3)n2)c1 [Compound A-319, (S)-5-{5-[6-(4-methoxypyridin-2-ylamino)pyridin-2-yl]thiazol-2-yl}pyrrolidin-2-one] | 
6.00 to 7.00 | 6.00 to 7.00 | Cc1ccnc(Nc2cccc(-c3cnc([C@H]4CC[C@H](C(=O)N(C)C)CC4)s3)n2)c1 [Compound A-264] | 
 |  | Cc1ccnc(Nc2cccc(-c3ccc(Cl)s3)n2)c1 [Compound B-16] | pIC50 [1, 6]: 6.00 to 7.00; pIC50 [2, 7]: < 6.00
6.00 to 7.00 | 6.00 to 7.00 | Cc1ccnc(Nc2cccc(-c3cnc([C@H](C)NC(=O)N(C)C)s3)n2)c1 [Compound A-56] | 
6.00 to 7.00 | 6.00 to 7.00 | Cc1ccnc(Nc2cccc(-c3cnc([C@H]4CC[C@H](C(=O)N5CCC(O)CC5)CC4)s3)n2)c1 [Compound A-8, (4-hydroxypiperidin-1-yl)-(trans-4-{5-[6-(4-methylpyridin-2-ylamino)pyridin-2-yl]thiazol-2-yl}cyclohexyl)methanone] | 
6.00 to 7.00 | 6.00 to 7.00 | Cc1ccnc(Nc2cccc(-c3cnc([C@H]4CC[C@H](C(=O)N5CCC[C@H]5CO)CC4)s3)n2)c1 [Compound A-285] | 
6.00 to 7.00 | < 6.00 | Cc1ccnc(Nc2cccc(-c3cnc(COCC(=O)N4CCC(O)CC4)s3)n2)c1 [Compound A-369] | 
 |  | CC(=O)N1CCC(N(CC(F)(F)F)c2ncc(-c3cccc(Nc4cc(C)ccn4)n3)s2)CC1 [Compound A-535, 1-{4-[N-{5-[6-(4-methylpyridin-2-ylamino)pyridin-2-yl]thiazol-2-yl}-N-(2,2,2-trifluoroethyl)amino]piperidin-1-yl}ethanone] | pIC50 [1, 5]: > 7.00; pIC50 ([2]; Tables 1-x, compounds A): < 6.00
> 7.00 | 6.00 to 7.00 | Cc1ccnc(Nc2cccc(-c3cnc(N4CCC(C(=O)NCCO)CC4)s3)n2)c1 [Compound A-5, N-(2-hydroxyethyl)-1-{5-[6-(4-methylpyridin-2-ylamino)pyridin-2-yl]thiazol-2-yl}piperidine-4-carboxamide] | 
 |  | COC(=O)N1CCN(c2ncc(-c3cccc(Nc4cc(C)ccn4)n3)s2)CC1 [Compound A-438, methyl 4-{5-[6-(4-methylpyridin-2-ylamino)pyridin-2-yl]thiazol-2-yl}piperazine-1-carboxylic acid methyl ester] | pIC50 [1, 5]: > 7.00; pIC50 ([2]; Tables 1-x, compounds A): 6.00 to 7.00
6.00 to 7.00 | < 6.00 | Cc1ccnc(Nc2cccc(-c3cnc(CC(C)(C)CC(=O)O)s3)n2)c1 [Compound A-157] | 
6.00 to 7.00 | 6.00 to 7.00 | Cc1ccnc(Nc2cccc(-c3cnc(C4CCC(=O)CC4)s3)n2)c1 [Compound A-60] | 
6.00 to 7.00 | < 6.00 | Cc1ccnc(Nc2cccc(-c3cnc(Cc4ccc(C(=O)O)cc4)s3)n2)c1 [Compound A-224] | 
> 7.00 | 6.00 to 7.00 | Cc1ccnc(Nc2cccc(-c3cnc([C@H]4CC[C@H](c5noc(=O)[nH]5)CC4)s3)n2)c1 [Compound A-325, 3-(trans-4-{5-[6-(4-methylpyridin-2-ylamino)pyridin-2-yl]thiazol-2-yl}cyclohexyl)-4H-[1,2,4]oxazol-5-one] | 
6.00 to 7.00 | < 6.00 | CCOC(=O)C1CCN(Cc2ncc(-c3cccc(Nc4cc(C)ccn4)n3)s2)CC1 [Compound A-167] | 
 |  | Cc1ccnc(Nc2cccc(-c3cnc(N4CCC(CC(=O)NCCO)CC4)s3)n2)c1 [Compound A-506, N-(2-hydroxyethyl)-2-(1-{5-[6-(4-methylpyridin-2-ylamino)pyridin-2-yl]thiazol-2-yl}piperidin-4-yl)acetamide] | pIC50 [1, 5]: > 7.00; pIC50 ([2]; Tables 1-x, compounds A): 6.00 to 7.00
> 7.00 | 6.00 to 7.00 | Cc1ccnc(Nc2cccc(-c3cnc(CN4CCC(O)CC4)s3)n2)c1 [Compound A-152, 1-{5-[6-(4-methylpyridin-2-ylamino)pyridin-2-yl]thiazol-2-ylmethyl}piperidin-4-ol] | 
> 7.00 | 6.00 to 7.00 | Cc1ccnc(Nc2cccc(-c3cnc(CCc4ccc(C(=O)O)cc4)s3)n2)c1 [Compound A-151, 4-(2-{5-[6-(4-methylpyridin-2-ylamino)pyridin-2-yl]thiazol-2-yl}ethyl)benzoic acid] | 
 |  | Cc1ccnc(Nc2cccc(-c3ccc(C(=O)NCC(O)CO)s3)n2)c1 (centres unmarked) [Compound B-102] | pIC50 [1, 6]: 6.00 to 7.00; pIC50 [2, 7]: < 6.00
 |  | Cc1ccnc(Nc2cccc(-c3cnc(N(C)C4CCN(C(=O)c5ccc(O)cc5)CC4)s3)n2)c1 [Compound A-513, (4-hydroxyphenyl)-[4-(N-methyl-N-{5-[6-(4-methylpyridin-2-ylamino)pyridin-2-yl]thiazol-2-yl}amino)piperidin-1-yl]methanone] | pIC50 [1, 5]: > 7.00; pIC50 ([2]; Tables 1-x, compounds A): 6.00 to 7.00
> 7.00 | 6.00 to 7.00 | Cc1ccnc(Nc2cccc(-c3cnc([C@H]4CC[C@H](C(=O)N5CCC(O)C5)CC4)s3)n2)c1 (stereo partly drawn) [Compound A-282, (3-hydroxypyrrolidin-1-yl)-(trans-4-{5-[6-(4-methylpyridin-2-ylamino)pyridin-2-yl]thiazol-2-yl}cyclohexyl)methanone] | 
 |  | Cc1ccnc(Nc2cccc(-c3ccc(C4=NC(C)(C)CO4)s3)n2)c1 [Compound B-39] | pIC50 [1, 6]: 6.00 to 7.00; pIC50 [2, 7]: < 6.00
6.00 to 7.00 | 6.00 to 7.00 | CNC(=O)COCc1ncc(-c2cccc(Nc3cc(C)ccn3)n2)s1 [Compound A-367] | 
